Results taken from patent US10597388B2, “Pyridazinone herbicides” (FMC CORPORATION, priority 2014, dated 2020).

What was measured:
Format in all cases: in vivo
[1] = tested on: barnyardgrass (Echinochloa crus-galli); assay: Test A greenhouse herbicide test, pre- and postemergence; details: for Barnyardgrass plant response rating: 0 is no effect, 100 is complete control
Procedure, shortened: (§1)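 Visual injury ratings, 0 (no effect) to 100 (complete control), versus untreated plants after roughly 10 d in a greenhouse. Compounds, formulated in a surfactant-containing non-phytotoxic solvent, were sprayed on loam–sand soil after sowing (pre) or on one- to two-leaf plants 2–10 cm tall (post).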

[2] = tested on: corn (Zea mays); assay: as above; details: Postemergence; for Corn plant response rating: 1000 g ai/ha, 0 is no effect, 100 is complete control
Procedure, shortened: as §1

[3] = tested on: foxtail, giant (giant foxtail, Setaria faberii); assay: as above; details: for Foxtail, Giant plant response rating: 0 is no effect, 100 is complete control
Procedure, shortened: as §1

[4] = tested on: kochia (Kochia scoparia); assay: as above; details: for Kochia plant response rating: 0 is no effect, 100 is complete control
Procedure, shortened: as §1

[5] = tested on: pigweed (Amaranthus retroflexus); assay: as above; details: for Pigweed plant response rating: 0 is no effect, 100 is complete control
Procedure, shortened: as §1

[6] = tested on: ragweed (common ragweed, Ambrosia elatior); assay: as above; details: for Ragweed plant response rating: 0 is no effect, 100 is complete control
Procedure, shortened: as §1

[7] = tested on: ryegrass, Italian (Italian ryegrass, Lolium multiflorum); assay: as above; details: for Ryegrass, Italian plant response rating: 0 is no effect, 100 is complete control
Procedure, shortened: as §1

[8] = tested on: wheat (Triticum aestivum); assay: as above; details: Postemergence; for Wheat plant response rating: 1000 g ai/ha, 0 is no effect, 100 is complete control
Procedure, shortened: as §1

[9] = tested on: blackgrass (Alopecurus myosuroides); assay: Test A greenhouse herbicide test, postemergence; details: for Blackgrass plant response rating: 1000 g ai/ha, 0 is no effect, 100 is complete control
Procedure, shortened: (§2)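 Seedlings in a loam soil and sand mix received formulated compound postemergence at the one- to two-leaf stage. Greenhouse holding lasts approximately 10 d, then injury is scored visually relative to untreated plants, 0 meaning no effect and 100 complete control.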

[10] = tested on: galium (catchweed bedstraw, Galium aparine); assay: Test A greenhouse herbicide test, postemergence; details: for Galium plant response rating: 1000 g ai/ha, 0 is no effect, 100 is complete control
Procedure, shortened: as §2

[11] = tested on: barnyardgrass (Echinochloa crus-galli); assay: Test B flooded paddy test; details: 250 g ai/ha, Flood; visual rating on scale of 0 to 100 where 0 is no effect and 100 is complete control; 13 to 15 d after treatment
Procedure, shortened: (§3)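 Ratings use a 0-100 visual scale, where 100 is complete control, and compare treated plants with controls after 13 to 15 d of greenhouse growth. Compound went straight into paddy water kept 3 cm over the soil surface, applied to seedlings at the 2-leaf stage.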

[12] = tested on: ducksalad (Heteranthera limosa); assay: Test B flooded paddy test; details: 250 g ai/ha, Flood; visual rating on scale of 0 to 100 where 0 is no effect and 100 is complete control; 13 to 15 d after treatment
Procedure, shortened: as §3

[13] = tested on: rice (Oryza sativa); assay: Test B flooded paddy test; details: 250 g ai/ha, Flood; visual rating on scale of 0 to 100 where 0 is no effect and 100 is complete control; 13 to 15 d after treatment
Procedure, shortened: as §3

[14] = tested on: sedge, umbrella (small-flower umbrella sedge, Cyperus difformis); assay: Test B flooded paddy test; details: 250 g ai/ha, Flood; visual rating on scale of 0 to 100 where 0 is no effect and 100 is complete control; 13 to 15 d after treatment
Procedure, shortened: as §3

[15] = Postemergence, 125 g ai/ha, 0 to 100 scale, 0 no effect, 100 complete control
[16] = Postemergence, 500 g ai/ha, visual rating after approx. 10 d, 0 to 100 scale (0 no effect, 100 complete control)
[17] = Preemergence, 125 g ai/ha, visual injury rating, 0 to 100 scale (0 no effect, 100 complete control), approx. 10 d
[18] = Preemergence, 500 g ai/ha, 0 to 100 scale where 0 is no effect and 100 is complete control
[19] = 125 g ai/ha, 0 to 100 scale, 0 no effect, 100 complete control
[20] = 500 g ai/ha, visual rating after approx. 10 d, 0 to 100 scale (0 no effect, 100 complete control)
[21] = Postemergence, 1000 g ai/ha, 0 to 100 scale
[22] = Preemergence, 1000 g ai/ha, 0 to 100 scale, 0 no effect, 100 complete control

## Cc1nn(Cc2ccccc2)c(=O)c(-c2cccc3ccccc23)c1O [Compound 168]
[1]; [15]
  Plant response rating, Barnyardgrass: 0
[1]; [16]
  Plant response rating, Barnyardgrass: 40
[1]; [17]
  Plant response rating, Barnyardgrass: 0
[1]; [18]
  Plant response rating, Barnyardgrass: 20
[2]; [19]
  Plant response rating, Corn: 0
[2]; [20]
  Plant response rating, Corn: 20
[3]; [15]
  Plant response rating, Foxtail, Giant: 30
[3]; [16]
  Plant response rating, Foxtail, Giant: 40
[3]; [17]
  Plant response rating, Foxtail, Giant: 0
[3]; [18]
  Plant response rating, Foxtail, Giant: 40
[4]; [15]
  Plant response rating, Kochia: 20
[4]; [16]
  Plant response rating, Kochia: 20
[4]; [17]
  Plant response rating, Kochia: 0
[4]; [18]
  Plant response rating, Kochia: 0
[5]; [15]
  Plant response rating, Pigweed: 0
[5]; [16]
  Plant response rating, Pigweed: 40
[5]; [17]
  Plant response rating, Pigweed: 0
[5]; [18]
  Plant response rating, Pigweed: 0
[6]; [15]
  Plant response rating, Ragweed: 0
[6]; [16]
  Plant response rating, Ragweed: 0
[6]; [17]
  Plant response rating, Ragweed: 0
[6]; [18]
  Plant response rating, Ragweed: 0
[7]; [15]
  Plant response rating, Ryegrass, Italian: 60
[7]; [16]
  Plant response rating, Ryegrass, Italian: 60
[7]; [17]
  Plant response rating, Ryegrass, Italian: 0
[7]; [18]
  Plant response rating, Ryegrass, Italian: 40
[8]; [19]
  Plant response rating, Wheat: 0
[8]; [20]
  Plant response rating, Wheat: 20
[9]; [19]
  Plant response rating, Blackgrass: 20
[9]; [20]
  Plant response rating, Blackgrass: 30
[10]; [19]
  Plant response rating, Galium: 0
[10]; [20]
  Plant response rating, Galium: 30
[11]
  Plant response rating, Barnyardgrass: 0
[12]
  Plant response rating, Ducksalad: 40
[13]
  Plant response rating, Rice: 0
[14]
  Plant response rating, Sedge, Umbrella: 0

## Cc1n[nH]c(=O)c(-c2cccc3ccccc23)c1OCC(F)F [Compound 173]
[1]; [15]
  Plant response rating, Barnyardgrass: 0
[1]; [16]
  Plant response rating, Barnyardgrass: 0
[1]; [17]
  Plant response rating, Barnyardgrass: 0
[1]; [18]
  Plant response rating, Barnyardgrass: 0
[2]; [19]
  Plant response rating, Corn: 0
[2]; [20]
  Plant response rating, Corn: 0
[3]; [15]
  Plant response rating, Foxtail, Giant: 0
[3]; [16]
  Plant response rating, Foxtail, Giant: 0
[3]; [17]
  Plant response rating, Foxtail, Giant: 0
[3]; [18]
  Plant response rating, Foxtail, Giant: 0
[4]; [15]
  Plant response rating, Kochia: 0
[4]; [16]
  Plant response rating, Kochia: 0
[4]; [17]
  Plant response rating, Kochia: 0
[4]; [18]
  Plant response rating, Kochia: 0
[5]; [15]
  Plant response rating, Pigweed: 0
[5]; [16]
  Plant response rating, Pigweed: 0
[5]; [17]
  Plant response rating, Pigweed: 0
[5]; [18]
  Plant response rating, Pigweed: 0
[6]; [15]
  Plant response rating, Ragweed: 0
[6]; [16]
  Plant response rating, Ragweed: 0
[6]; [17]
  Plant response rating, Ragweed: 0
[6]; [18]
  Plant response rating, Ragweed: 0
[7]; [15]
  Plant response rating, Ryegrass, Italian: 0
[7]; [16]
  Plant response rating, Ryegrass, Italian: 0
[7]; [17]
  Plant response rating, Ryegrass, Italian: 0
[7]; [18]
  Plant response rating, Ryegrass, Italian: 0
[8]; [19]
  Plant response rating, Wheat: 0
[8]; [20]
  Plant response rating, Wheat: 0
[9]; [19]
  Plant response rating, Blackgrass: 0
[9]; [20]
  Plant response rating, Blackgrass: 0
[10]; [19]
  Plant response rating, Galium: 0
[10]; [20]
  Plant response rating, Galium: 0
[11]
  Plant response rating, Barnyardgrass: 0
[12]
  Plant response rating, Ducksalad: 0
[13]
  Plant response rating, Rice: 0
[14]
  Plant response rating, Sedge, Umbrella: 0

## Cc1cc(C)c2sc(C)c(-c3c(OC(=O)N4CCOCC4)c(C)nn(C)c3=O)c2c1 [Compound 174]
[1]; [15]
  Plant response rating, Barnyardgrass: 0
[1]; [16]
  Plant response rating, Barnyardgrass: 10
[1]; [17]
  Plant response rating, Barnyardgrass: 0
[1]; [18]
  Plant response rating, Barnyardgrass: 0
[2]; [19]
  Plant response rating, Corn: 0
[2]; [20]
  Plant response rating, Corn: 0
[3]; [15]
  Plant response rating, Foxtail, Giant: 0
[3]; [16]
  Plant response rating, Foxtail, Giant: 10
[3]; [17]
  Plant response rating, Foxtail, Giant: 0
[3]; [18]
  Plant response rating, Foxtail, Giant: 10
[4]; [15]
  Plant response rating, Kochia: 0
[4]; [16]
  Plant response rating, Kochia: 0
[4]; [17]
  Plant response rating, Kochia: 0
[4]; [18]
  Plant response rating, Kochia: 0
[5]; [15]
  Plant response rating, Pigweed: 40
[5]; [16]
  Plant response rating, Pigweed: 60
[5]; [17]
  Plant response rating, Pigweed: 0
[5]; [18]
  Plant response rating, Pigweed: 20
[6]; [15]
  Plant response rating, Ragweed: 20
[6]; [16]
  Plant response rating, Ragweed: 20
[6]; [17]
  Plant response rating, Ragweed: 0
[6]; [18]
  Plant response rating, Ragweed: 0
[7]; [15]
  Plant response rating, Ryegrass, Italian: 10
[7]; [16]
  Plant response rating, Ryegrass, Italian: 40
[7]; [17]
  Plant response rating, Ryegrass, Italian: 0
[7]; [18]
  Plant response rating, Ryegrass, Italian: 0
[8]; [19]
  Plant response rating, Wheat: 0
[8]; [20]
  Plant response rating, Wheat: 0
[9]; [19]
  Plant response rating, Blackgrass: 0
[9]; [20]
  Plant response rating, Blackgrass: 0
[10]; [19]
  Plant response rating, Galium: 30
[10]; [20]
  Plant response rating, Galium: 80
[11]
  Plant response rating, Barnyardgrass: 0
[12]
  Plant response rating, Ducksalad: 0
[13]
  Plant response rating, Rice: 0
[14]
  Plant response rating, Sedge, Umbrella: 0

## C#CCOc1c(C)nn(C)c(=O)c1-c1cccc2ccccc12 [Compound 179]
[1]; [21]
  Barnyardgrass plant response rating: 10
[1]; [22]
  Plant response rating, Barnyardgrass: 0
[2]; 0 to 100 scale
  Corn plant response rating: 10
[3]; [21]
  Foxtail, Giant plant response rating: 10
[3]; [22]
  Plant response rating, Foxtail, Giant: 30
[4]; [21]
  Kochia plant response rating: 10
[4]; [22]
  Plant response rating, Kochia: 30
[5]; [21]
  Pigweed plant response rating: 0
[5]; [22]
  Plant response rating, Pigweed: 80
[6]; [21]
  Ragweed plant response rating: 40
[6]; [22]
  Plant response rating, Ragweed: 50
[7]; [21]
  Ryegrass, Italian plant response rating: 70
[7]; [22]
  Plant response rating, Ryegrass, Italian: 30
[8]; 0 to 100 scale
  Wheat plant response rating: 0
[9]; 0 to 100 scale
  Blackgrass plant response rating: 40
[10]; 0 to 100 scale
  Galium plant response rating: 90
[11]
  Plant response rating, Barnyardgrass: 0
[12]
  Plant response rating, Ducksalad: 0
[13]
  Plant response rating, Rice: 0
[14]
  Plant response rating, Sedge, Umbrella: 0

## Cc1nn(C)c(=O)c(-c2cccc3ccccc23)c1OCC(=O)C1CC1 [Compound 181]
[1]; [21]
  Barnyardgrass plant response rating: 0
[1]; [22]
  Plant response rating, Barnyardgrass: 0
[2]; 0 to 100 scale
  Corn plant response rating: 0
[3]; [21]
  Foxtail, Giant plant response rating: 0
[3]; [22]
  Plant response rating, Foxtail, Giant: 0
[4]; [21]
  Kochia plant response rating: 0
[4]; [22]
  Plant response rating, Kochia: 10
[5]; [21]
  Pigweed plant response rating: 30
[5]; [22]
  Plant response rating, Pigweed: 30
[6]; [21]
  Ragweed plant response rating: 30
[6]; [22]
  Plant response rating, Ragweed: 10
[7]; [21]
  Ryegrass, Italian plant response rating: 80
[7]; [22]
  Plant response rating, Ryegrass, Italian: 60
[8]; 0 to 100 scale
  Wheat plant response rating: 0
[9]; 0 to 100 scale
  Blackgrass plant response rating: 20
[10]; 0 to 100 scale
  Galium plant response rating: 80
[11]
  Plant response rating, Barnyardgrass: 0
[12]
  Plant response rating, Ducksalad: 0
[13]
  Plant response rating, Rice: 0
[14]
  Plant response rating, Sedge, Umbrella: 0
